Source: patent publication US11401271B2, “Fused heterocyclic compound, pyrazole-ring-containing fused heterocyclic compound, agricultural composition containing thereof, and method of using the composition” (SOUTH CHINA AGRICULTURAL UNIVERSITY, priority 2017, dated 2022)

Key:
Assay in all cases: whole plant or invertebrate
Assay type in all cases: in vivo
[1] = test system: Plutella xylostella; conditions: 500 ppm; 2nd-instar larvae, leaf immersion feeding
In short: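 Leaf immersion feeding test: 2nd-instar larvae (about 35 per vessel, 3 replicates) kept at 28° C. on 1.0 cm cabbage discs soaked 5 s in a 500 ppm solution with 0.05% Tween-80. Mortality after 24 h of exposure, calculated relative to live larvae in the Tween-80 control.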

[2] = test system: Solenopsis invicta; conditions: 100 ppm, water test tube poison-feeding
In short: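 Mortality (%) of Solenopsis invicta, computed against live counts in control tubes, was recorded 24 h and 72 h after treatment at 25 °C. Compound was offered by oral feeding in test tubes at 100 ppm, diluted from a 10 g/L DMSO stock into water with 5% honey and 0.05% Tween-80.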

[3] = test system: Spodoptera exigua; conditions: 500 ppm; 2nd-instar larvae, leaf immersion feeding
In short: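 Leaf immersion feeding: second-instar larvae (about 35 per vessel, triplicate) kept at 28° C on discs treated with 500 ppm test solution in 0.05% Tween-80. Mortality at 24 h, calculated relative to surviving larvae in the solvent control.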

[4] = test system: Aphis craccivora; conditions: 500 ppm; wingless adults, immersion 5 seconds, counted after 24 hours
In short: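 Mortality scored 24 h after treatment as the reduction in live aphids versus a 0.05% Tween-80 control; three replicates, 23° C. Treatment was a 5 s immersion of wingless adults on bean sprouts in 500 ppm test solution containing 0.05% Tween-80, followed by air-drying.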

Row | Compound | Plutella xylostella Mortality (%) [1] [%] | Solenopsis invicta Mortality (%) 24 h [2] [%] | Solenopsis invicta Mortality (%) 72 h [2] [%] | Spodoptera exigua Mortality (%) [3] [%] | Aphis craccivora Mortality (%) [4] [%]
1 | N#CCC1(C(F)(F)F)Nc2c([S+]([O-])C(F)(F)F)c(C#N)nn2-c2c(Cl)cc(C(F)(F)F)cc21 (stereo not drawn) [d-70] | 91 | 20 | 98 | 90 | 99
2 | CCCCOC(=O)CC1(C(=O)OCCCC)Nc2c([S+]([O-])C(F)(F)F)c(C#N)nn2-c2c(Cl)cc(C(F)(F)F)cc21 (stereo not drawn) [d-72] | 90 | 26 | 76 | 85 | 99
3 | N#Cc1nn2c(c1[S+]([O-])C(F)(F)F)NC(C(=O)C(F)(F)F)c1cc(C(F)(F)F)cc(Cl)c1-2 (stereo not drawn) [d-81] | 99 | 35 | 100 | 90 | 100
4 | N#Cc1nn2c(c1[S+]([O-])C(F)(F)F)NC(C#N)c1cc(C(F)(F)F)cc(Cl)c1-2 (stereo not drawn) [d-82] | 95 | 25 | 90 | 89 | 100
5 | N#Cc1nn2c(c1[S+]([O-])C(F)(F)F)NC(CC(F)(F)F)c1cc(C(F)(F)F)cc(Cl)c1-2 (stereo not drawn) [d-85] | 100 | 30 | 100 | 100 | 100
6 | N#Cc1nn2c(c1[S+]([O-])C(F)(F)F)NC(Cl)c1cc(C(F)(F)F)cc(Cl)c1-2 (stereo not drawn) [d-90] | 82 | 16 | 85 | 80 | 90
7 | COC(=O)CC1Nc2c([S+]([O-])C(F)(F)F)c(C(F)(F)F)nn2-c2c(Cl)cc(C(F)(F)F)cc21 (stereo not drawn) [d-98] | 100 | 20 | 99 | 100 | 100
8 | O=C(CC1Nc2c([S+]([O-])C(F)(F)F)c(C(F)(F)F)nn2-c2c(Cl)cc(C(F)(F)F)cc21)C(F)(F)F (stereo not drawn) [d-103] | 100 | 26 | 93 | 98 | 100
9 | [O-][S+](c1c(C(F)(F)F)nn2c1NC(C(F)(F)F)c1cc(C(F)(F)F)cc(Cl)c1-2)C(F)(F)F (stereo not drawn) [d-107] | 100 | 24 | 100 | 100 | 100
10 | CNC(=O)C1Nc2c([S+]([O-])C(F)(F)F)c(C(F)(F)F)nn2-c2c(Cl)cc(C(F)(F)F)cc21 (stereo not drawn) [d-109] | 96 | 28 | 85 | 85 | 99
11 | CC(=O)C1Nc2c([S+]([O-])C(F)(F)F)c(C(F)(F)F)nn2-c2c(Cl)cc(C(F)(F)F)cc21 (stereo not drawn) [d-112] | 96 | 36 | 99 | 80 | 100
12 | [O-][S+](c1c(C(F)(F)F)nn2c1NC(Br)c1cc(C(F)(F)F)cc(Cl)c1-2)C(F)(F)F (stereo not drawn) [d-114] | 100 | 24 | 90 | 87 | 100
13 | CC=CC1Nc2c([S+]([O-])C(F)(F)F)c(C(F)(F)F)nn2-c2c(Cl)cc(C(F)(F)F)cc21 (stereo not drawn) [d-119] | 89 | 26 | 83 | 90 | 92
14 | COC(=O)C(C)C1Nc2c(OC(F)(F)F)c(C#N)nn2-c2c(Cl)cc(C(F)(F)F)cc21 (stereo not drawn) [d-122] | 91 | 24 | 95 | 84 | 90
15 | N#Cc1nn2c(c1OC(F)(F)F)NC(C(=O)C(F)(F)F)c1cc(C(F)(F)F)cc(Cl)c1-2 (stereo not drawn) [d-127] | 96 | 20 | 97 | 100 | 100
16 | N#CCC1Nc2c(OC(F)(F)F)c(C#N)nn2-c2c(Cl)cc(C(F)(F)F)cc21 (stereo not drawn) [d-129] | 95 | 24 | 100 | 100 | 100
17 | CNC(=O)CC1Nc2c(OC(F)(F)F)c(C#N)nn2-c2c(Cl)cc(C(F)(F)F)cc21 (stereo not drawn) [d-133] | 70 | 21 | 95 | 86 | 100
18 | CC(C)C1Nc2c(OC(F)(F)F)c(C#N)nn2-c2c(Cl)cc(C(F)(F)F)cc21 (stereo not drawn) [d-141] | 90 | 11 | 91 | 95 | 100
19 | COC(=O)CC1(C(=O)OC)Nc2c([S+]([O-])C(F)(F)F)c(C#N)nn2-c2c(C(F)(F)F)ccc(Cl)c21 (stereo not drawn) [e-1] | 100 | 33 | 100 | 100 | 100
20 | CCOC(=O)CC1(C(=O)OC)Nc2c([S+]([O-])C(F)(F)F)c(C#N)nn2-c2c(C(F)(F)F)ccc(Cl)c21 (stereo not drawn) [e-2] | 100 | 25 | 100 | 100 | 100
21 | COC(=O)C1(CC(=O)OCC(F)(F)F)Nc2c([S+]([O-])C(F)(F)F)c(C#N)nn2-c2c(C(F)(F)F)ccc(Cl)c21 (stereo not drawn) [e-3] | 100 | 20 | 98 | 95 | 100
22 | COC(=O)C1(CC(=O)OCC(F)F)Nc2c([S+]([O-])C(F)(F)F)c(C#N)nn2-c2c(C(F)(F)F)ccc(Cl)c21 (stereo not drawn) [e-4] | 100 | 32 | 100 | 100 | 100
23 | CCOC(=O)CC1(C(=O)OCC)Nc2c([S+]([O-])C(F)(F)F)c(C#N)nn2-c2c(C(F)(F)F)ccc(Cl)c21 (stereo not drawn) [e-5] | 100 | 34 | 100 | 100 | 100
24 | CCOC(=O)C1(CC(=O)OC)Nc2c([S+]([O-])C(F)(F)F)c(C#N)nn2-c2c(C(F)(F)F)ccc(Cl)c21 (stereo not drawn) [e-6] | 100 | 34 | 100 | 100 | 100
25 | COC(=O)CC1(C(=O)OC)Nc2c([S+]([O-])C(F)(F)F)c(C#N)nn2-c2ccc(C(F)(F)F)c(Cl)c21 (stereo not drawn) [e-7] | 100 | 29 | 99 | 100 | 100
26 | COC(=O)CC1(C(=O)OC)Nc2c([S+]([O-])C(F)(F)F)c(C#N)nn2-c2c1ccc(Cl)c2C(F)(F)F (stereo not drawn) [e-13] | 100 | 20 | 100 | 100 | 100
27 | COC(=O)CC1(C(=O)OC)Nc2c([S+]([O-])C(F)(F)F)c(C#N)nn2-c2cc(C(F)(F)F)c(Cl)cc21 (stereo not drawn) [e-19] | 100 | 31 | 90 | 100 | 100
